Legend:
[1] = xn = mol fraction of the nth substance listed; conditions: 298.15 K, 101 kPa, Liquid, Vibrating tube method
[2] = Liquid; Ebulliometric method (Recirculating still)
[3] = refractive index (Na D-line) (dimensionless); conditions: 298.15 K; 101.33 kPa; Liquid; Standard Abbe refractometry

CCC(C)O (centres undefined) [butan-2-ol] + CCOC(C)=O
[1]
Conditions	mass density [kg/m3]
x2 = 0	802.5
x2 = 0.0415	805.6
x2 = 0.0917	809.5
x2 = 0.1482	813.9
x2 = 0.208	818.7
x2 = 0.257	822.8
x2 = 0.2963	826.2
x2 = 0.3488	830.7
x2 = 0.3914	834.5
x2 = 0.4397	838.9
x2 = 0.4905	843.5
x2 = 0.5313	847.3
x2 = 0.6	853.8
x2 = 0.6539	859
x2 = 0.7031	863.8
x2 = 0.741	867.5
x2 = 0.7953	873
x2 = 0.8528	878.9
x2 = 0.8891	882.6
x2 = 0.9484	889

CCC(C)O (centres undefined) [butan-2-ol] + COC(C)=O
Conditions	mass density [kg/m3]
[1], x2 = 0	802.5

CCOC(C)=O [ethyl acetate] + CCC(C)O
Conditions	mass density [kg/m3]
[1], x1 = 1	894.5

COC(C)=O [methyl ethanoate] + CCC(C)O
[1]
Conditions	mass density [kg/m3]
x1 = 0.058	807.2
x1 = 0.1719	817.3
x1 = 0.2756	827.5
x1 = 0.3391	834.2
x1 = 0.4544	847.3
x1 = 0.4714	849.3
x1 = 0.5051	853.4
x1 = 0.5458	858.5
x1 = 0.593	864.5
x1 = 0.6822	876.6
x1 = 0.799	893.7
x1 = 0.8576	902.9
x1 = 0.8788	906.3
x1 = 0.9586	919.9
x1 = 1	927.3

CCC(C)O (centres undefined) [butan-2-ol]
Conditions	Normal boiling temperature [°C]	refractive index
[2]	99.61	–
[3]	–	1.3949

Source: the NIST ThermoML archive (doi:10.1021/je5003225)
